Laboratory results as given in patent publication US20240041840A1 (Areteia Therapeutics, Inc., priority 2020, published 2024).
Read-outs that look alike come from different tables or passages of the source.

System: subjects with eosinophilic asthma
Procedure: Pulmonary function is measured by performing a spirometry, which measures forced expiratory volume in is (FEV1), the volume of air moved in the first second of exhalation, this is a well-accepted measure of asthma. Forced vital capacity (FVC) is the total volume of air exhaled during the entire forced expiratory volume (FEV) test. The FEV1/FVC ratio is a calculated measure that may provide a more specific measure of bronchoconstriction, independent of processes such as air trapping. Pulmonary function testing can be tested pre-bronchodilator (after waiting a sufficient time so that all bronchodilator medications have cleared) or post-bronchodilator, typically 15-30 minutes after inhaling a short-acting bronchodilator, such as albuterol. Bronchodilator reversibility (BDR) is calculated and assessed by analyzing FEV1 pre- and post-bronchodilator, and calculating the change both as absolute (ml) and percentage change.
Evaluation of Efficacy: Blood eosinophil count, changes in pulmonary function (FEV1), Asthma Control Questionnaire (ACQ-6), Asthma Control Questionnaire (ACQ-7), Asthma Quality of Life Questionnaire (AQLQ), exhaled nitric oxide, pharyngeal and nasal eosinophil peroxidase were collected periodically during the study.
To control the alpha level for testing 3 dose groups versus placebo for the primary endpoint and for testing FEV1, a closed hierarchical testing procedure was used in the following order: 1. First, the 300 mg/day dose group was tested versus placebo for change in blood absolute eosinophil count, and if this reached the <0.05 level then, 2. the 150 mg/day dose group was tested versus placebo at the 0.05 level for change in blood absolute eosinophil count, and if this reached the <0.05 level then, 3. the pooled 150 and 300 mg/day dose groups were tested versus placebo at the 0.05 level for change in FEV1 at Week 12, then 4. the 75 mg/day dose group was tested versus placebo at the 0.05 level for change in blood absolute eosinophil count, and if this reached the <0.05 level.

[1] = 75 mg/day, Table 6D, timepoint printed as Analysis Baseline*
[2] = 75 mg/day, Table 6D, timepoint printed as Week 4
[3] = 150 mg/day, Table 6D, timepoint printed as Analysis Baseline*
[4] = 150 mg/day, Table 6D, timepoint printed as Week 4

Structure (SMILES): CCCN[C@@H]1CCc2nc(N)sc2C1 [dexpramipexole, (6R)-2-amino-4,5,6,7-tetrahydro-6-(propylamino) benzothiazole]
- Pre-Bronchodilator FEV1 % change, mean [1]: 12.0%
- Pre-Bronchodilator FEV1 % change, median [1]: 10.7%
- Pre-Bronchodilator FEV1 change, mean [1]: 0.237 L
- Pre-Bronchodilator FEV1 change, median [1]: 0.170 L
- Pre-Bronchodilator FEV1 observed, mean [1]: 228 L
- Pre-Bronchodilator FEV1 observed, median [1]: 2.24 L
- Pre-Bronchodilator FEV1 % change, mean [2]: 9.27%
- Pre-Bronchodilator FEV1 % change, median [2]: 5.48%
- Pre-Bronchodilator FEV1 change, mean [2]: 0.207 L
- Pre-Bronchodilator FEV1 change, median [2]: 0.115 L
- Pre-Bronchodilator FEV1 observed, mean [2]: 2.24 L
- Pre-Bronchodilator FEV1 observed, median [2]: 2.08 L
- FEV1 change from Baseline LSM (75 mg/day, Week 4): 0.150 L
- FEV1 difference versus Placebo LSM (75 mg/day, Week 4): 0.165 L
- Pre-Bronchodilator FEV1 % change, median (75 mg/day, Week 4): 4.85%
- Pre-Bronchodilator FEV1, % change from Baseline, mean (75 mg/day, Week 4): 6.25%
- Pre-Bronchodilator FEV1 change, mean (75 mg/day, Week 4): 0.130 L
- Pre-Bronchodilator FEV1 change, median (75 mg/day, Week 4): 0.0750 L
- Pre-Bronchodilator FEV1 observed, mean (75 mg/day, Week 4): 2.10 L
- Pre-Bronchodilator FEV1 observed, median (75 mg/day, Week 4): 2.10 L
- Pre-Bronchodilator Percent Predicted FEV1 % change, mean (75 mg/day, Week 4): 62.4%
- Pre-Bronchodilator Percent Predicted FEV1 % change, median (75 mg/day, Week 4): 4.85%
- Pre-Bronchodilator Percent Predicted FEV1 change, mean (75 mg/day, Week 4): 3.59%
- Pre-Bronchodilator Percent Predicted FEV1 change, median (75 mg/day, Week 4): 2.69%
- Pre-Bronchodilator Percent Predicted FEV1 observed, mean (75 mg/day, Week 4): 62.2%
- Pre-Bronchodilator Percent Predicted FEV1 observed, median (75 mg/day, Week 4): 64.4%
- FEV1 change from Baseline LSM (75 mg/day, Week 8): 0.204 L
- FEV1 difference versus Placebo LSM (75 mg/day, Week 8): 0.210 L
- Pre-Bronchodilator FEV1, % change from Baseline, mean (75 mg/day, Week 8): 12.0%
- FEV1 change from Baseline LSM (75 mg/day, Week 12): 0.168 L
- FEV1 difference versus Placebo LSM (75 mg/day, Week 12): 0.121 L
- Pre-Bronchodilator FEV1, % change from Baseline, mean (75 mg/day, Week 12): 9.27%
- FEV1 change from Baseline LSM (75 mg/day, Week 16 or Week 18): 0.295 L
- FEV1 difference versus Placebo LSM (75 mg/day, Week 16 or Week 18): 0.327 L
- Pre-Bronchodilator FEV1, % change from Baseline, mean (75 mg/day, Week 16 or Week 18): 17.6%
- ΔFEV1 vs Placebo LSM (SEM), pooled data (75 mg/day, Weeks 4, 8, 12, & 16/18 pooled): 206 mL
- Pre-Bronchodilator FEV1 % change, mean [3]: 7.57%
- Pre-Bronchodilator FEV1 % change, median [3]: 3.88%
- Pre-Bronchodilator FEV1 change, mean [3]: 0.130 L
- Pre-Bronchodilator FEV1 change, median [3]: 0.0900 L
- Pre-Bronchodilator FEV1 observed, mean [3]: 2.21 L
- Pre-Bronchodilator FEV1 observed, median [3]: 2.22 L
- Pre-Bronchodilator FEV1 % change, mean [4]: 3.14%
- Pre-Bronchodilator FEV1 % change, median [4]: −1.72%
- Pre-Bronchodilator FEV1 change, mean [4]: 0.0414 L
- Pre-Bronchodilator FEV1 change, median [4]: -0.0400 L
- Pre-Bronchodilator FEV1 observed, mean [4]: 2.12 L
- Pre-Bronchodilator FEV1 observed, median [4]: 2.11 L
- FEV1 change from Baseline LSM (150 mg/day, Week 4): 0.151 L
- FEV1 difference versus Placebo LSM (150 mg/day, Week 4): 0.166 L
- Pre-Bronchodilator FEV1 % change, median (150 mg/day, Week 4): 4.54%
- Pre-Bronchodilator FEV1, % change from Baseline, mean (150 mg/day, Week 4): 7.31%
- Pre-Bronchodilator FEV1 change, mean (150 mg/day, Week 4): 0.123 L
- Pre-Bronchodilator FEV1 change, median (150 mg/day, Week 4): 0.0800 L
- Pre-Bronchodilator FEV1 observed, mean (150 mg/day, Week 4): 2.15 L
- Pre-Bronchodilator FEV1 observed, median (150 mg/day, Week 4): 2.05 L
- Pre-Bronchodilator Percent Predicted FEV1 % change, mean (150 mg/day, Week 4): 7.31%
- Pre-Bronchodilator Percent Predicted FEV1 % change, median (150 mg/day, Week 4): 4.54%
- Pre-Bronchodilator Percent Predicted FEV1 change, mean (150 mg/day, Week 4): 3.95%
- Pre-Bronchodilator Percent Predicted FEV1 change, median (150 mg/day, Week 4): 2.85%
- Pre-Bronchodilator Percent Predicted FEV1 observed, mean (150 mg/day, Week 4): 67.4%
- Pre-Bronchodilator Percent Predicted FEV1 observed, median (150 mg/day, Week 4): 69.2%
- FEV1 change from Baseline LSM (150 mg/day, Week 8): 0.166 L
- FEV1 difference versus Placebo LSM (150 mg/day, Week 8): 0.173 L
